Laboratory results published in US12195506B2, “Immunotherapy with A*01 restricted peptides and combination of peptides against cancers and related methods” (Immatics Biotechnologies GmbH, priority 2018, dated 2025).

Columns and labels:
CD8+ T cells = assay: In vitro T-cell priming assay with artificial antigen presenting cells loaded with peptide/MHC complexes and anti-CD28 antibody, pMHC multimer readout; type: cell-based, human; conditions: Table 10b; in vitro immunogenicity, peptide-specific multimer+ CD8+ T cells
Excerpt: In order to obtain information regarding the immunogenicity of the TUMAPs of the present invention, the inventors performed investigations using an in vitro T-cell priming assay based on repeated stimulations of CD8+ T cells with artificial antigen presenting cells (aAPCs) loaded with peptide/MHC complexes and anti-CD28 antibody.
In order to perform in vitro stimulations by artificial antigen presenting cells loaded with peptide-MHC complex (pMHC) and anti-CD28 antibody, the inventors first isolated CD8+ T cells from fresh HLA-A*02 leukapheresis products via positive selection using CD8 microbeads (Miltenyi Biotec, Bergisch-Gladbach, Germany) of healthy donors obtained from the University clinics Mannheim, Germany, after informed consent.
PBMCs and isolated CD8+ lymphocytes were incubated in T-cell medium (TCM) until use consisting of RPMI-Glutamax (Invitrogen, Karlsruhe, Germany) supplemented with 10% heat inactivated human AB serum (PAN-Biotech, Aidenbach, Germany), 100 U/ml Penicillin/100 μg/ml Streptomycin (Cambrex, Cologne, Germany), 1 mM sodium pyruvate (CC Pro, Oberdorla, Germany), 20 μg/ml Gentamycin (Cambrex). 2.5 ng/ml IL-7 (PromoCell, Heidelberg, Germany) and 10 U/ml IL-2 (Novartis Pharma, Nurnberg, Germany) were also added to the TCM at this step.
Generation of pMHC/anti-CD28 coated beads, T-cell stimulations and readout was performed in a highly defined in vitro system using four different pMHC molecules per stimulation condition and 8 different pMHC molecules per readout condition.
The purified co-stimulatory mouse IgG2a anti human CD28 Ab 9.3 (Jung et al., 1987) was chemically biotinylated using Sulfo-N-hydroxysuccinimidobiotin as recommended by the manufacturer (Perbio, Bonn, Germany). Beads used were 5.6 μm diameter streptavidin coated polystyrene particles (Bangs Laboratories, Illinois, USA).
pMHC used for positive and negative control stimulations were A*0201/MLA-001 (peptide […] (SEQ ID NO. 433) from modified Melan-A/MART-1) and A*0201/DDX5-001 ([…] from DDX5, SEQ ID NO. 434), respectively.
800.000 beads/200 μI were coated in 96-well plates in the presence of 4×12.5 ng different biotin-pMHC, washed and 600 ng biotin anti-CD28 were added subsequently in a volume of 200 μI. Stimulations were initiated in 96-well plates by co-incubating 1×10^6 CD8+ T cells with 2×10^5 washed coated beads in 200 μI TCM supplemented with 5 ng/ml IL-12 (PromoCell) for 3 days at 37° C. Half of the medium was then exchanged by fresh TCM supplemented with 80 U/ml IL-2 and incubating was continued for 4 days at 37° C. This stimulation cycle was performed for a total of three times. For the pMHC multimer readout using 8 different pMHC molecules per condition, a two-dimensional combinatorial coding approach was used as previously described (Andersen et al., 2012) with minor modifications encompassing coupling to 5 different fluorochromes. Finally, multimeric analyses were performed by staining the cells with Live/dead near IR dye (Invitrogen, Karlsruhe, Germany), CD8-FITC antibody clone SK1 (BD, Heidelberg, Germany) and fluorescent pMHC multimers. For analysis, a BD LSRII SORP cytometer equipped with appropriate lasers and filters was used. Peptide specific cells were calculated as percentage of total CD8+ cells. Evaluation of multimeric analysis was done using the FlowJo software (Tree Star, Oregon, USA). In vitro priming of specific multimer+CD8+ lymphocytes was detected by comparing to negative control stimulations.

HLA-A*01:01 = HLA-A*01:01 (Homo sapiens, UniProt P04439, A114D/A174V/A182V/D101N/D185E/E176A/E190D/L180R/Q94H/R68K/S129P/T187R/V100A/V91M/W191G); assay: MHC binding assay: UV-ligand exchange, ELISA of stabilized MHC complexes (peptide exchange yield); conditions: binding to HLA-A*01:01, UV-ligand exchange
How it was run: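 Peptide–MHC complexes were formed by UV-induced exchange of a photocleavable ligand for the test peptide. Exchange yield was measured by streptavidin-capture ELISA of 100-fold diluted complexes, detected with HRP anti-β2m at A450. Refolded HLA-A*02:01/MLA-001 monomers at 15-500 ng/ml served as standards.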

“18 (RSDPVSLRY; listed as Homo sapiens) [compound 18]” was tested, and the “Wells positive [%]” value (CD8+ T cells) was “++ (20%-49% = ++)” and the Peptide exchange (HLA-A*01:01) was “++++ (>75% = ++++)”.

In the case of “19 (LTEGHSGNY; listed as Homo sapiens) [compound 19]”, the “Wells positive [%]” value (CD8+ T cells) is reported as “+ (<20% = +)” and the Peptide exchange (HLA-A*01:01) is reported as “++++ (>75% = ++++)”.

“24 (NLDHYTNAY; listed as Homo sapiens) [compound 24]” was tested, and the “Wells positive [%]” value (CD8+ T cells) was “+ (<20% = +)” and the Peptide exchange (HLA-A*01:01) was “+++ (>50 = +++)”.

With “26 (ASDDFRSKY; listed as Homo sapiens) [compound 26]” the “Wells positive [%]” value (CD8+ T cells) was “++ (20%-49% = ++)” and the Peptide exchange (HLA-A*01:01) was “+++ (>50 = +++)”.

For “27 (PSEVPVDSHY; listed as Homo sapiens) [compound 27]”, the “Wells positive [%]” value (CD8+ T cells) was “+ (<20% = +)” and the Peptide exchange (HLA-A*01:01) was “++++ (>75% = ++++)”.

“33 (SMDPVTGYQY; listed as Homo sapiens) [compound 33]” was tested, and the “Wells positive [%]” value (CD8+ T cells) was “+ (<20% = +)” and the Peptide exchange (HLA-A*01:01) was “+++ (>50 = +++)”.

For “37 (MTSTEQSLYY; listed as Homo sapiens) [compound 37]”, the “Wells positive [%]” value (CD8+ T cells) was “+ (<20% = +)” and the Peptide exchange (HLA-A*01:01) was “+++ (>50 = +++)”.

In the case of “42 (ASDVDTLLK; listed as Homo sapiens) [compound 42]”, the “Wells positive [%]” value (CD8+ T cells) is reported as “+ (<20% = +)” and the Peptide exchange (HLA-A*01:01) is reported as “+++ (>50 = +++)”.

With “53 (YLEDRPLSQLY; listed as Homo sapiens) [compound 53]” the “Wells positive [%]” value (CD8+ T cells) was “+ (<20% = +)” and the Peptide exchange (HLA-A*01:01) was “++++ (>75% = ++++)”.

For “54 (EVDIHTIHY; listed as Homo sapiens) [compound 54]”, the “Wells positive [%]” value (CD8+ T cells) was “+ (<20% = +)” and the Peptide exchange (HLA-A*01:01) was “+++ (>50 = +++)”.

In the case of “60 (MTEKFLFLY; listed as Homo sapiens) [compound 60]”, the “Wells positive [%]” value (CD8+ T cells) is reported as “+ (<20% = +)” and the Peptide exchange (HLA-A*01:01) is reported as “++++ (>75% = ++++)”.

For “61 (SSDIVALGGFLY; listed as Homo sapiens) [compound 61]”, the “Wells positive [%]” value (CD8+ T cells) was “++ (20%-49% = ++)” and the Peptide exchange (HLA-A*01:01) was “+++ (>50 = +++)”.

For “64 (TSEISQNALMYY; listed as Homo sapiens) [compound 64]”, the “Wells positive [%]” value (CD8+ T cells) was “+ (<20% = +)” and the Peptide exchange (HLA-A*01:01) was “+++ (>50 = +++)”.

With “70 (YTELVEEKY; listed as Homo sapiens) [compound 70]” the “Wells positive [%]” value (CD8+ T cells) was “+ (<20% = +)” and the Peptide exchange (HLA-A*01:01) was “+++ (>50 = +++)”.

For “71 (LTDSTTRTTY; listed as Homo sapiens) [compound 71]”, the “Wells positive [%]” value (CD8+ T cells) was “+ (<20% = +)” and the Peptide exchange (HLA-A*01:01) was “+++ (>50 = +++)”.

For “73 (STDSASYY; listed as Homo sapiens) [compound 73]”, the “Wells positive [%]” value (CD8+ T cells) was “+ (<20% = +)” and the Peptide exchange (HLA-A*01:01) was “++++ (>75% = ++++)”.

“75 (FTDYELKAY; listed as Homo sapiens) [compound 75]” was tested, and the “Wells positive [%]” value (CD8+ T cells) was “+ (<20% = +)” and the Peptide exchange (HLA-A*01:01) was “++++ (>75% = ++++)”.

“77 (FTSDTGLEY; listed as Homo sapiens) [compound 77]” was tested, and the “Wells positive [%]” value (CD8+ T cells) was “+++ (50%-69% = +++)” and the Peptide exchange (HLA-A*01:01) was “++++ (>75% = ++++)”.

In the case of “79 (ASDLEPRELLSY; listed as Homo sapiens) [compound 79]”, the “Wells positive [%]” value (CD8+ T cells) is reported as “+ (<20% = +)” and the Peptide exchange (HLA-A*01:01) is reported as “+++ (>50 = +++)”.

For “81 (YSDLHTPGRY; listed as Homo sapiens) [compound 81]”, the “Wells positive [%]” value (CD8+ T cells) was “+ (<20% = +)” and the Peptide exchange (HLA-A*01:01) was “+++ (>50 = +++)”.

For “82 (LTEKSHIRY; listed as Homo sapiens) [compound 82]”, the “Wells positive [%]” value (CD8+ T cells) was “+ (<20% = +)” and the Peptide exchange (HLA-A*01:01) was “+++ (>50 = +++)”.

For “83 (DTEFHGGLHY; listed as Homo sapiens) [compound 83]”, the “Wells positive [%]” value (CD8+ T cells) was “+ (<20% = +)” and the Peptide exchange (HLA-A*01:01) was “+++ (>50 = +++)”.

For “84 (ESEMIKFASYY; listed as Homo sapiens) [compound 84]”, the “Wells positive [%]” value (CD8+ T cells) was “+ (<20% = +)” and the Peptide exchange (HLA-A*01:01) was “++++ (>75% = ++++)”.

For “386 (NSALNPLLY; listed as Homo sapiens) [compound 386]”, the “Wells positive [%]” value (CD8+ T cells) was “+ (<20% = +)” and the Peptide exchange (HLA-A*01:01) was “++++ (>75% = ++++)”.

In the case of “387 (LMEKEDYHSLY; listed as Homo sapiens) [compound 387]”, the “Wells positive [%]” value (CD8+ T cells) is reported as “+ (<20% = +)” and the Peptide exchange (HLA-A*01:01) is reported as “+++ (>50 = +++)”.
